Active and inactive are the calls of the source.
Legend:
[1] = target: T1, Delta-type opioid receptor (Homo sapiens, UniProt P41143); assay: HTS Image-Based Screen for Antagonists of the DOR Receptor. [Related pubchem assays (depositor defined):AID1777, AID1785, AID1786, AID2133]; assay type: functional
Mu-type opioid receptor [2] = target: T2, Mu-type opioid receptor (Homo sapiens, UniProt P35372); assay: HTS Image-Based Screen for Agonists of the MOR Receptor. [Related pubchem assays (depositor defined):AID1777, AID1785, AID1786, AID2133]; assay type: functional
[3] = target: T1, Delta-type opioid receptor; assay: HTS Image-Based Screen for Agonists of the DOR Receptor. [Related pubchem assays (depositor defined):AID1777, AID1786, AID2133]; assay type: functional
[4] = target: T3, Kappa-type opioid receptor (Homo sapiens, UniProt P41145); assay type: functional
Beta-galactosidase = Beta-galactosidase (Escherichia coli, UniProt Q8VNN2); assay type: functional
[5] = target: T3, Kappa-type opioid receptor; assay type: functional; remark: listed apart in the source
Tumor necrosis factor = Tumor necrosis factor (Homo sapiens, UniProt P01375); assay: analog potency on TNFa NF-kB signaling – cell-based, revised, SAR follow-up (AID 2337); assay type: functional
[6] = target: Nucleotide-binding oligomerization domain-containing protein 1 (Homo sapiens, UniProt Q9Y239); assay: blockers of NOD1 pathway activity – revised, SAR follow-up (AID 2333); assay type: functional
HEK293 = assay: cells; conditions: Homo sapiens
[7] = target: T4, G-protein coupled receptor 35 (Homo sapiens, UniProt Q9HC97); assay: inhibition of zaprinast-stimulated GPR35 beta-arrestin translocation – imaging, U2OS, beta-arrestin-GFP, zaprinast agonist, primary screen (AID 2058); assay type: functional;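 note: antagonist potency meaning inhibition of agonist-induced arrestin redistribution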
[8] = target: T5, G-protein coupled receptor 55 (Homo sapiens, UniProt Q9Y2T6); assay: inhibition of LPI-stimulated GPR55 beta-arrestin translocation – imaging, U2OS, beta-arrestin-GFP, LPI agonist, primary screen (AID 2013); assay type: functional;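 note: antagonist potency measured as reduced agonist-driven arrestin aggregation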
[9] = viability of PTEN-deleted HCT116 cells – cell-based, HCT116 PTEN knockout, dose response (AID 1047); assay type: functional;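 note: HCT116 colon tumor cells with PTEN knocked out; cells exposed to compound for 60 hours before readout; potency for loss of cell viability measured by luminescence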
[10] = viability of HCT116 lacking mutant beta-catenin – cell-based, human colon tumor, dose response (AID 1045); assay type: functional;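 note: HCT116 colon tumor cells with beta catenin knocked out; cells exposed to compound for 60 hours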
CAAX prenyl protease 2 [11] = target: T6, CAAX prenyl protease 2 (Saccharomyces cerevisiae S288c, UniProt Q03530); assay type: biochemical
T6 sequence (Q03530 whole entry): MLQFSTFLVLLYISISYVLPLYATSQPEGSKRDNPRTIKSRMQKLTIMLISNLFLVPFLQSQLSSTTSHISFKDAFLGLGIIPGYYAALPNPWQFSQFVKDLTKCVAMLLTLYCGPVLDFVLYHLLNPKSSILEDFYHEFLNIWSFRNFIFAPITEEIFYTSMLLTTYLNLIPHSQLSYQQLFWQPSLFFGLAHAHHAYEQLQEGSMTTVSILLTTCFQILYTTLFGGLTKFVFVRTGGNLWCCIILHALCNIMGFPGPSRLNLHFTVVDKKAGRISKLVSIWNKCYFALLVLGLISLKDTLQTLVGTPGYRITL

Integrin alpha-4 = Integrin alpha-4 (Homo sapiens, UniProt P13612); assay: allosteric modulators of alpha4 integrin VLA-4 – cell-based, LIBS antibody binding, flow cytometry, SAR follow-up (AID 488791); assay type: functional
[12] = toxicity toward cultured mammalian cells – cell-based, plate reader, cherry-pick samples, cytotoxicity control, dose response (AID 504397); assay type: functional
[13] = target: T7, Replicative DNA helicase DnaB (Mycobacterium tuberculosis, UniProt P9WMR3); assay: DnaB intein splicing inhibitors, dose response, biochemical, cell-free fluorescence (AID 449749); assay type: functional
T7 sequence (P9WMR3 whole entry): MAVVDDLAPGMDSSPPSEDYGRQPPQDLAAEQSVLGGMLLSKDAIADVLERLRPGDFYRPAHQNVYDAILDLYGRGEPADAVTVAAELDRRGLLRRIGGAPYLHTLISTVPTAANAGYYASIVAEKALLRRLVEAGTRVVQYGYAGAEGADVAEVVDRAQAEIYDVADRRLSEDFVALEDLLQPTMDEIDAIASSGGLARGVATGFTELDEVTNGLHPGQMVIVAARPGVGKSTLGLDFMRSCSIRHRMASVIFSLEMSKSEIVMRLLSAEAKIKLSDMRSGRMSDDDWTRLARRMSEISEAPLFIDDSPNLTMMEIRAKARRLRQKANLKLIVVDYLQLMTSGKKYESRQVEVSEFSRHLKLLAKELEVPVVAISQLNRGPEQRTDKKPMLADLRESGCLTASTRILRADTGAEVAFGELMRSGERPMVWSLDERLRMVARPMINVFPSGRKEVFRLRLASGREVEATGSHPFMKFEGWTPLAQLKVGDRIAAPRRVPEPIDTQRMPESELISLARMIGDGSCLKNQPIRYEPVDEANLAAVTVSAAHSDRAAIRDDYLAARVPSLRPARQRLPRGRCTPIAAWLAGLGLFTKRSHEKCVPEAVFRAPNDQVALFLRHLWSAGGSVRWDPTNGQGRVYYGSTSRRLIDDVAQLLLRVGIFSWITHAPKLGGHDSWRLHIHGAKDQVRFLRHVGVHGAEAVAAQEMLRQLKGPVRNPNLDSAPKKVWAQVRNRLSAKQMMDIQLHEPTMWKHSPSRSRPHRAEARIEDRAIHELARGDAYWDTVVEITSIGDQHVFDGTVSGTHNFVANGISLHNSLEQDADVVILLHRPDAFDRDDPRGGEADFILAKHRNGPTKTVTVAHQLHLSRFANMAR

Protein RecA = target: T8, Protein RecA (Mycobacterium tuberculosis, UniProt P9WHJ3); assay: Fluorescence Cell-Free Homogeneous Dose Retest to Identify Inhibitors of RecA-Intein Splicing Activity. [Related pubchem assays (depositor defined):AID2097, AID2223, AID489010, AID492950]; assay type: functional
T8 sequence (P9WHJ3 whole entry): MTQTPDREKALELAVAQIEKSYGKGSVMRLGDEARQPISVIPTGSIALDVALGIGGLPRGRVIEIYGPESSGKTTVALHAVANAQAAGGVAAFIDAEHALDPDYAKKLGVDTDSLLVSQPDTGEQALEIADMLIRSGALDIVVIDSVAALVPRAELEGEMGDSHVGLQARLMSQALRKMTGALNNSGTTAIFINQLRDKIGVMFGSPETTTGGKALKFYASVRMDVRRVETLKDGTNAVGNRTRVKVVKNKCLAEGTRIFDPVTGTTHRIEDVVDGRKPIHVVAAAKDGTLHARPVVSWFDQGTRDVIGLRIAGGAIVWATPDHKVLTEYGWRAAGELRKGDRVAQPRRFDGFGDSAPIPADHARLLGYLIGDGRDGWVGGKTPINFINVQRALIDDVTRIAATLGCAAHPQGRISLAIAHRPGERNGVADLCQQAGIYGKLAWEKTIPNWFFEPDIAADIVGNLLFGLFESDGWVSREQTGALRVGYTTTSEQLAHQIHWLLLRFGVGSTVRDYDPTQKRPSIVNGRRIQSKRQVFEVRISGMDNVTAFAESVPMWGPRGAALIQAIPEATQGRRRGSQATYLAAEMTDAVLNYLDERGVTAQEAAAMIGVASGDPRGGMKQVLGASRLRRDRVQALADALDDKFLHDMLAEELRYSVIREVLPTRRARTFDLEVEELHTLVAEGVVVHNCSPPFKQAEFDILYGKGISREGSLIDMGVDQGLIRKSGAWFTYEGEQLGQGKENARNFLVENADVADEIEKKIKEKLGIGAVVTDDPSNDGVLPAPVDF

CAAX prenyl protease 2 [14] = target: T9, CAAX prenyl protease 2 (Homo sapiens, UniProt Q9Y256); assay: inhibition of Ras-converting CAAX protease Rce1 – biochemical, yeast membranes, quenched-peptide fluorescence, cherry-pick, dose response (AID 588849)
T9 sequence (Q9Y256 whole entry): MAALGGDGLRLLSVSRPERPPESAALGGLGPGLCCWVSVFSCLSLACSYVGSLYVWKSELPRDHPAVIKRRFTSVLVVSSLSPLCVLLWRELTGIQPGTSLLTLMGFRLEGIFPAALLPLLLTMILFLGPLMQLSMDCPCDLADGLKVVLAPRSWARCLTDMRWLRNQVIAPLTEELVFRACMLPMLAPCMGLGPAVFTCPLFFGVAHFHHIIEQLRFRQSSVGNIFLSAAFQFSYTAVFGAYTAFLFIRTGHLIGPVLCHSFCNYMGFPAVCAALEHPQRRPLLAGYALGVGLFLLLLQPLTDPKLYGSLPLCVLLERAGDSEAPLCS

[15] = target: Voltage-dependent T-type calcium channel subunit alpha-1H (Homo sapiens, UniProt O95180); assay: inhibition of CACNA1H calcium flux – cell-based, SynthLib3 library, HEK293 Cav3.2, fluorescence (AID 493041); assay type: functional
[16] = target: T3, Kappa-type opioid receptor; assay: kappa opioid receptor activation by imaging – image-based, set 3, SAR follow-up (AID 488833); assay type: functional
Mu-type opioid receptor [17] = target: T2, Mu-type opioid receptor; assay: SAR Analysis of Agonists of the MOR Receptor using an Image-Based Assay - Set 3. [Related pubchem assays (depositor defined):AID1777, AID1785, AID1786, AID1966, AID2133, AID2136, AID2284, AID2285, AID2352]; assay type: functional
[18] = target: T1, Delta-type opioid receptor; assay: SAR Analysis of Agonists of the DOR Receptor using an Image-Based Assay - Set 3. [Related pubchem assays (depositor defined):AID1777, AID1786]; assay type: functional
[19] = target: T3, Kappa-type opioid receptor; assay: SAR analysis of small molecule agonists of the kappa opioid receptor via a luminescent beta-arrestin assay - Set 3. [Related pubchem assays (depositor defined):AID1777, AID1785, AID1786, AID1966, AID2133, AID2136, AID2284, AID2500]; assay type: functional
[20] = Trypanosoma cruzi growth suppression in host cells – NIH3T3 host cells, beta-gal luminescence, confirmation (AID 2044); assay type: functional, cell-based;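 note: intracellular parasites grown in NIH/3T3 mouse fibroblasts as host cells; luminescent beta-galactosidase reporter signal from transgenic T. cruzi replicating inside host cells; inhibitors lower the luminescence signal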
[21] = NIH3T3 cell viability loss – ATP luminescence, mouse fibroblasts, counter-screen, dose response (AID 2010); assay type: functional, cell-based;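 note: cells exposed to compound for about 90 hours before reading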
Cannabinoid receptor 1 [22] = target: T10, Cannabinoid receptor 1 (Homo sapiens, UniProt P21554); assay: SAR analysis of antagonists of the Cannabinoid Receptor 1 using an Image-Based Assay - Set 2. [Related pubchem assays (depositor defined):AID2013, AID2026]; assay type: functional
[23] = target: T4, G-protein coupled receptor 35; assay: SAR analysis of Agonists of the GPR35 Receptor using an Image-Based Assay - Set 2. [Related pubchem assays (depositor defined):AID2013, AID2026]; assay type: functional
Cannabinoid receptor 2 [24] = target: T11, Cannabinoid receptor 2 (Homo sapiens, UniProt P34972); assay: SAR analysis of antagonists of the Cannabinoid Receptor 2 using an Image-Based Assay. [Related pubchem assays (depositor defined):AID2013, AID2026]; assay type: functional
Cannabinoid receptor 1 [25] = target: T10, Cannabinoid receptor 1; assay: SAR analysis of agonists of the Cannabinoid Receptor 1 using an Image-Based Assay - Set 2. [Related pubchem assays (depositor defined):AID2013, AID2026]; assay type: functional
[26] = target: T4, G-protein coupled receptor 35; assay: SAR analysis of Antagonists of the GPR35 Receptor using an Image-Based Assay - Set 3. [Related pubchem assays (depositor defined):AID2013, AID2026]; assay type: functional
[27] = target: T5, G-protein coupled receptor 55; assay: blockade of LPI-induced GPR55 arrestin translocation – imaging, U2OS, beta-arrestin-GFP, LPI agonist, set 2, SAR follow-up (AID 2820); assay type: functional
Cannabinoid receptor 2 [28] = target: T11, Cannabinoid receptor 2; assay: SAR analysis of agonists of the Cannabinoid Receptor 2 using an Image-Based Assay. [Related pubchem assays (depositor defined):AID2013, AID2026]; assay type: functional

T1 sequence (P41143 whole entry): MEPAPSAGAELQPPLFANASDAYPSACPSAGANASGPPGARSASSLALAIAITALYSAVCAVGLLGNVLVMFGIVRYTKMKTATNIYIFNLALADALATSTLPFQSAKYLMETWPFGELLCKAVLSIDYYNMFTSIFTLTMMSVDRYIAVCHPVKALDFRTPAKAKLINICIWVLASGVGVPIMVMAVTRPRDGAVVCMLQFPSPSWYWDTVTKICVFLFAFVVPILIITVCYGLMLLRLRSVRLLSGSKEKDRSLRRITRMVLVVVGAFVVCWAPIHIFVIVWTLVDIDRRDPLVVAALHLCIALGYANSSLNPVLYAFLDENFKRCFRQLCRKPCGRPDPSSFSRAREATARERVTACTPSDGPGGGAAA
T4 sequence (Q9HC97 whole entry): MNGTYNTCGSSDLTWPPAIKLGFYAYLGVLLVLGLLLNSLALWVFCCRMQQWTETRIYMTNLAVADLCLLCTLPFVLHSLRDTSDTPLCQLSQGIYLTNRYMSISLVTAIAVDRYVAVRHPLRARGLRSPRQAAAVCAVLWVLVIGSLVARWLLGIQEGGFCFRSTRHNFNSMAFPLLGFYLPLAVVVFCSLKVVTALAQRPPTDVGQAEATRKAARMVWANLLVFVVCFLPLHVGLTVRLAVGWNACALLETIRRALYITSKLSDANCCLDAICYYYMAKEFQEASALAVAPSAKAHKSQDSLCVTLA
T3 sequence (P41145 whole entry): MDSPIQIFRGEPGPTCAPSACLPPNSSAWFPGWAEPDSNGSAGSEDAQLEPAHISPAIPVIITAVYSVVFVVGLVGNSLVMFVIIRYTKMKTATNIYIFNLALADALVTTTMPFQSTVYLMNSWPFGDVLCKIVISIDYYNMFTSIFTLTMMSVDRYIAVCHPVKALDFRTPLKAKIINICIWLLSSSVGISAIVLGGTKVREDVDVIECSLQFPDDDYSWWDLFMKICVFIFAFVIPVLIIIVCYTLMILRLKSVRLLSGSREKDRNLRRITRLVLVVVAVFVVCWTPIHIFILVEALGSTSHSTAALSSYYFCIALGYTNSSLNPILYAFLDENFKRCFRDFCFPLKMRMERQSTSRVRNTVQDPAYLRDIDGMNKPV
T5 sequence (Q9Y2T6 whole entry): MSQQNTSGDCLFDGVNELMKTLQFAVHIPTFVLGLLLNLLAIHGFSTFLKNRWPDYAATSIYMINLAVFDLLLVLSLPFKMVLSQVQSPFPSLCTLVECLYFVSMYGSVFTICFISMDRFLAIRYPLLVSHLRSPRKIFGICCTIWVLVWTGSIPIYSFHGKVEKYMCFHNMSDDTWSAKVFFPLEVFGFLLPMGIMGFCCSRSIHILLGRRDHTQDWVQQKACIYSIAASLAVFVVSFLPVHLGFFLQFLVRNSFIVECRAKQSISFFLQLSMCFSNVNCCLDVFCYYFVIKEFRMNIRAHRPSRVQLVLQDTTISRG
T10 sequence (P21554 whole entry): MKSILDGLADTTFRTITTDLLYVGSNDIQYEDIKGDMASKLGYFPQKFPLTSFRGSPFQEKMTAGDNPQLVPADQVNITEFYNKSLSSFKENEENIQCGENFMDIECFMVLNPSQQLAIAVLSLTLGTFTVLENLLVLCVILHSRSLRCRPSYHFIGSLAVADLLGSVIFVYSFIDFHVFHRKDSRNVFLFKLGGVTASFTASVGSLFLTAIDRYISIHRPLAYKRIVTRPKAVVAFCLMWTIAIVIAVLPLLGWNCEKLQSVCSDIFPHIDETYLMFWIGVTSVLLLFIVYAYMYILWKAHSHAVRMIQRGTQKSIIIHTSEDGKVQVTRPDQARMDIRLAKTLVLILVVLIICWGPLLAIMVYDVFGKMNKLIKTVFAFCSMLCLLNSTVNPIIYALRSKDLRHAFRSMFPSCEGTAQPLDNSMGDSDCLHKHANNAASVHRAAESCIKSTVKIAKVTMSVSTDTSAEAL
T11 sequence (P34972 whole entry): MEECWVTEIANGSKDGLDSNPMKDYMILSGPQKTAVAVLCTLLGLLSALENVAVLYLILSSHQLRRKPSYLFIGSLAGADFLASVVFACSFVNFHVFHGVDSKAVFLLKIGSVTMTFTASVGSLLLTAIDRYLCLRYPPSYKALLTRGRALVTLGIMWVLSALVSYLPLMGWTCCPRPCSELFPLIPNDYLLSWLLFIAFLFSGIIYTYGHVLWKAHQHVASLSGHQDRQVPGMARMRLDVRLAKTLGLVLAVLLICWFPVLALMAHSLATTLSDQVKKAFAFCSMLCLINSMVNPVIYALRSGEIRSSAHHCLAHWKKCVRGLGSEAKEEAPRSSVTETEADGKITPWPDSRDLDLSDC
T2 sequence (P35372 whole entry): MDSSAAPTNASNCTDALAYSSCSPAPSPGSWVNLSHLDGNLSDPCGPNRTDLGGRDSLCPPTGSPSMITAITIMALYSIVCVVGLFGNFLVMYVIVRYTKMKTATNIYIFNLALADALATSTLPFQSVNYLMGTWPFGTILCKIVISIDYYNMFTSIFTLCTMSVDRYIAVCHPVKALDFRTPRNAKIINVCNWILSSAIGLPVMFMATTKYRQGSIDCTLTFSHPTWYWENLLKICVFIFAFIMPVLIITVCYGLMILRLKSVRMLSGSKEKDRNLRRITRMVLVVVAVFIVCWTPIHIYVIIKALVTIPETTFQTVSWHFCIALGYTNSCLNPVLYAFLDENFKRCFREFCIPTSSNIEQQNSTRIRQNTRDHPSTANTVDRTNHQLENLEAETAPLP
Chain of Tumor necrosis factor (P01375 whole entry, the tested form may be a part): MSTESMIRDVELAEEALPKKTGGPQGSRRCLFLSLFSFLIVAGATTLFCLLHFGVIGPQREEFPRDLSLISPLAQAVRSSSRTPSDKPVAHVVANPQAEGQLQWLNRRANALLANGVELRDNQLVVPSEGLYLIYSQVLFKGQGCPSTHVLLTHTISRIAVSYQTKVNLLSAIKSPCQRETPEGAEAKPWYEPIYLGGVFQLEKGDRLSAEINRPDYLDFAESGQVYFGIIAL
Chain of Nucleotide-binding oligomerization domain-containing protein 1 (Q9Y239 whole entry, the tested form may be a part): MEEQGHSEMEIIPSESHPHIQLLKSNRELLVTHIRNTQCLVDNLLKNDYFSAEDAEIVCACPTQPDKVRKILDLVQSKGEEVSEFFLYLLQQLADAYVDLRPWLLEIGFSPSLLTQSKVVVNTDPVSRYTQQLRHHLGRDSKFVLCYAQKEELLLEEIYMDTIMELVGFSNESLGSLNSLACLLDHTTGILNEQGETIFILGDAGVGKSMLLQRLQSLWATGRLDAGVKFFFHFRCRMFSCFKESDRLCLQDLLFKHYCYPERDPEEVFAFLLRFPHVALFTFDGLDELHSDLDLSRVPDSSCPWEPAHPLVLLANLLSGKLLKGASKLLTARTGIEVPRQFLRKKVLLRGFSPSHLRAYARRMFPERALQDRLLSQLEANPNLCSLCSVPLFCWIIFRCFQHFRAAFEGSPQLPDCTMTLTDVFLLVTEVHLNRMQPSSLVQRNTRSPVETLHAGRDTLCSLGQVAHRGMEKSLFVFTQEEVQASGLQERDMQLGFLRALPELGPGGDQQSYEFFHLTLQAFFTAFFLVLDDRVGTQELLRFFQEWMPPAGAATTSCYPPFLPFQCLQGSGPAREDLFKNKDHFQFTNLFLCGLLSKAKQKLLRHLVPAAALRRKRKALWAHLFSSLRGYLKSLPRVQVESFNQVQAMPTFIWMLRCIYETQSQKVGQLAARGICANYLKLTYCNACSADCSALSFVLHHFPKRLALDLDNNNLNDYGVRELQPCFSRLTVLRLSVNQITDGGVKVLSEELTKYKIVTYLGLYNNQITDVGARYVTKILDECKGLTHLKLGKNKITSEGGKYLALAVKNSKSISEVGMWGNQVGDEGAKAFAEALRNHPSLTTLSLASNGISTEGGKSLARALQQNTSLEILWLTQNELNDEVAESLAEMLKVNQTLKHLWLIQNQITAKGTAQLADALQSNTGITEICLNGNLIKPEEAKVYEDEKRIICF
Chain of Integrin alpha-4 (P13612 whole entry): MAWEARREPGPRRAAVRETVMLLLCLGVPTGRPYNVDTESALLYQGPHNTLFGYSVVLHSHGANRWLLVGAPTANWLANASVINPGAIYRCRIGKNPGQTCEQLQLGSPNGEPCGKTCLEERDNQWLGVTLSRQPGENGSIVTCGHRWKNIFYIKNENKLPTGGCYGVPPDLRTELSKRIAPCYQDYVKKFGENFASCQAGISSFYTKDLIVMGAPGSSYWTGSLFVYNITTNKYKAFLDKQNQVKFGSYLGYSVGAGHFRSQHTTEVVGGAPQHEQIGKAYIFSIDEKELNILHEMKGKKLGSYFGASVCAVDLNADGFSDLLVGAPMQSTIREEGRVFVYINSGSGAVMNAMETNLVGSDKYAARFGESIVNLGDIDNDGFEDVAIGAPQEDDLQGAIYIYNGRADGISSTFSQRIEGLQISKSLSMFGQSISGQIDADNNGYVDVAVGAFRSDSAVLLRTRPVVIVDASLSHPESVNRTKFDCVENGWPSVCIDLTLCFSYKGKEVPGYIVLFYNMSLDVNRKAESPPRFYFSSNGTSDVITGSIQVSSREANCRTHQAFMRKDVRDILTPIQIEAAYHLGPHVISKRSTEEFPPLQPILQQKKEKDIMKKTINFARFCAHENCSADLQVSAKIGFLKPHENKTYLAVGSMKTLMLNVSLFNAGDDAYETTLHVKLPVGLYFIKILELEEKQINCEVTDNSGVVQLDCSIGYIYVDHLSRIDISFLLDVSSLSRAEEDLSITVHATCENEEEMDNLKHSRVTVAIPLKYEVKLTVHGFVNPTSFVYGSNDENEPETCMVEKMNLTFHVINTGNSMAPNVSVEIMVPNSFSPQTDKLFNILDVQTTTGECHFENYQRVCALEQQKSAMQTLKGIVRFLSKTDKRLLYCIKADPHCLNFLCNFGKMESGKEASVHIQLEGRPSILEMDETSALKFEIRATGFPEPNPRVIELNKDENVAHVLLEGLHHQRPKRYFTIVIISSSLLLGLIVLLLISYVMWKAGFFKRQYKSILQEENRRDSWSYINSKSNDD

## COC(=O)c1ccc(C)c(-n2c(=O)n(Cc3ccccc3)c(=O)c3[nH]cnc32)c1
[1]
  IC50: > 32 µM (inactive)
Mu-type opioid receptor [2]
  EC50: > 32 µM (inactive)
[3]
  EC50: > 32 µM (inactive)
[4]
  IC50: 6.39 µM (active)
Beta-galactosidase
  EC50: 11.5 µM (active)
[5]
  IC50: > 32 µM

## CC(=O)N1c2ccc(S(=O)(=O)N3CCN(c4ccc(C)cc4)CC3)cc2CC1C (stereo unspecified)
Tumor necrosis factor
  IC50: 4.32 µM (active)
[6]
  IC50: 5.76 µM (active)
HEK293
  IC50: > 20 µM (inactive)

## CC(NC(=O)/C(C#N)=C/c1ccc(Cl)c([N+](=O)[O-])c1)c1ccccc1 (stereo unspecified)
[7]
  IC50: 2.53 µM (active)
[8]
  IC50: 8.95 µM (active)
[9]
  EC50: 17.8 µM (active)
[10]
  EC50: 13.5 µM (active)
CAAX prenyl protease 2 [11]
  AC50: 2.44 µM (active)
Integrin alpha-4
  EC50: 2.42 µM (active)
[12]
  AC50: 18.2 µM (active)
[13]
  AC50: 4.02 µM (active)
Protein RecA
  EC50: 5.2 µM (active)
CAAX prenyl protease 2 [14]
  AC50: 8.59 µM (active)

## CCC(CC)CN1CCC[C@H](NC(=O)COc2ccc(F)c(Cl)c2)C1
[15]
  EC50: 10 µM (active)

## COC(=O)c1ccc(CSc2nnc(-c3ccccn3)n2Cc2ccco2)cc1
[16]
  EC50: 18.7 µM (inactive)
Mu-type opioid receptor [17]
  EC50: > 32 µM (inactive)
[18]
  EC50: > 64 µM (inactive)
[19]
  EC50: 6.62 µM (active)

## CCC(C)NS(=O)(=O)c1ccc(NC(=O)C(Sc2ccccc2)c2ccccc2)cc1 (stereo unspecified)
[8]
  IC50: 0.592 µM (active)
[20]
  EC50: 2.34 µM (active)
[9]
  EC50: 13.6 µM (active)
[21]
  EC50: > 60 µM (not active)
[10]
  EC50: 14.5 µM (active)
Cannabinoid receptor 1 [22]
  IC50: 0.975 µM (active)
[23]
  EC50: > 32 µM (inactive)
Cannabinoid receptor 2 [24]
  IC50: > 32 µM (inactive)
Cannabinoid receptor 1 [25]
  EC50: > 32 µM (inactive)
[26]
  IC50: > 32 µM (inactive)
[27]
  IC50: 1.94 µM (active)
Cannabinoid receptor 2 [28]
  EC50: > 32 µM (inactive)

From ChEMBL document CHEMBL1201862, “PubChem BioAssay data set” (2004)
